# In ChEMBL document CHEMBL1201861, “Genomics of Drug Sensitity in Cancer screening data, Wellcome Trust Sanger Institute”:
# Legend:
# Assay in all cases: cells
# Type in all cases: functional, cell-based
# Details in all cases: Homo sapiens
# [1] = test system: SK-LMS-1;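 also: growth inhibition of human SK-LMS-1 cells, read out with a cell viability assay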
# Description: SANGER: Inhibition of human SK-LMS-1 cell growth in a cell viability assay.
# [2] = test system: TE-12;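 also: growth inhibition of TE-12 cells, read out by a cell viability assay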
# Description: SANGER: Inhibition of human TE-12 cell growth in a cell viability assay.
# [3] = test system: EW-1;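 also: growth inhibition of the human EW-1 cell line, read out by a cell viability assay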
# Description: SANGER: Inhibition of human EW-1 cell growth in a cell viability assay.
# [4] = test system: RPMI-8226
# Description: SANGER: Inhibition of human RPMI-8226 cell growth in a cell viability assay.
# [5] = test system: GCIY;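 also: growth inhibition of the human GCIY cell line, read out by a cell viability assay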
# Description: SANGER: Inhibition of human GCIY cell growth in a cell viability assay.
# [6] = test system: DJM-1;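 also: growth inhibition of human DJM-1 cells, read out by a cell viability assay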
# Description: SANGER: Inhibition of human DJM-1 cell growth in a cell viability assay.
# [7] = test system: NEC8;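 also: growth inhibition of human NEC8 cells, read out by a cell viability assay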
# Description: SANGER: Inhibition of human NEC8 cell growth in a cell viability assay.
# [8] = test system: Mo
# Description: SANGER: Inhibition of human Mo-T cell growth in a cell viability assay.
# [9] = test system: HDLM-2;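 also: cell viability assay measuring suppression of HDLM-2 proliferation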
# Description: SANGER: Inhibition of human HDLM-2 cell growth in a cell viability assay.
# [10] = test system: Calu-6;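 also: growth of human Calu-6 cells, read out by a cell viability assay, IC50 marking inhibition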
# Description: SANGER: Inhibition of human Calu-6 cell growth in a cell viability assay.
# [11] = test system: MZ2-MEL;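 also: growth inhibition of MZ2-MEL cells read out with a cell viability assay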
# Description: SANGER: Inhibition of human MZ2-MEL cell growth in a cell viability assay.
# [12] = test system: D283 Med
# Description: SANGER: Inhibition of human D-283MED cell growth in a cell viability assay.
# [13] = test system: NOS-1;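 also: growth inhibition of the human NOS-1 cell line, read out with a cell viability assay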
# Description: SANGER: Inhibition of human NOS-1 cell growth in a cell viability assay.
# [14] = test system: MZ1-PC;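 also: cell viability assay measuring growth inhibition of human MZ1-PC cells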
# Description: SANGER: Inhibition of human MZ1-PC cell growth in a cell viability assay.
# [15] = test system: MEG-01;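 also: growth inhibition of MEG-01 cells, read out by a cell viability assay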
# Description: SANGER: Inhibition of human MEG-01 cell growth in a cell viability assay.
# [16] = test system: SW684;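 also: growth inhibition of human SW684 cells, measured by a cell viability assay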
# Description: SANGER: Inhibition of human SW684 cell growth in a cell viability assay.
# [17] = test system: HD-MY-Z;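 also: growth inhibition of HD-MY-Z cells, read out with a cell viability assay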
# Description: SANGER: Inhibition of human HD-MY-Z cell growth in a cell viability assay.
# [18] = test system: RH-1;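 also: growth inhibition of human RH-1 cells, read out with a cell viability assay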
# Description: SANGER: Inhibition of human RH-1 cell growth in a cell viability assay.
# [19] = test system: NCI-H1581;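 also: cell growth inhibition read out by a viability assay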
# Description: SANGER: Inhibition of human NCI-H1581 cell growth in a cell viability assay.
# [20] = test system: MC116;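 also: growth inhibition of MC116 cells, read out with a cell viability assay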
# Description: SANGER: Inhibition of human MC116 cell growth in a cell viability assay.
# [21] = test system: NOMO-1;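 also: growth inhibition of human NOMO-1 cells measured by a cell viability assay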
# Description: SANGER: Inhibition of human NOMO-1 cell growth in a cell viability assay.
# [22] = test system: JVM-2;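 also: growth inhibition of JVM-2 cells determined by a cell viability assay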
# Description: SANGER: Inhibition of human JVM-2 cell growth in a cell viability assay.
# [23] = test system: RS4-11;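 also: growth inhibition of RS4-11 cells, read out by a cell viability assay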
# Description: SANGER: Inhibition of human RS4-11 cell growth in a cell viability assay.
# [24] = test system: DB
# Description: SANGER: Inhibition of human DB cell growth in a cell viability assay.
# [25] = test system: DEL;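 also: growth inhibition of the human DEL cell line, read out with a cell viability assay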
# Description: SANGER: Inhibition of human DEL cell growth in a cell viability assay.
# [26] = test system: GOTO;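 also: growth inhibition of GOTO cells, read out by a cell viability assay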
# Description: SANGER: Inhibition of human GOTO cell growth in a cell viability assay.
# [27] = test system: LS-513
# Description: SANGER: Inhibition of human LS-513 cell growth in a cell viability assay.
# [28] = test system: EW-16;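 also: growth inhibition of human EW-16 cells, read out as cell viability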
# Description: SANGER: Inhibition of human EW-16 cell growth in a cell viability assay.
# [29] = test system: KNS-42;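 also: growth inhibition of KNS-42 cells, read out with a cell viability assay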
# Description: SANGER: Inhibition of human KNS-42 cell growth in a cell viability assay.
# [30] = test system: HC-1;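 also: growth inhibition of HC-1 cells measured by a cell viability assay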
# Description: SANGER: Inhibition of human HC-1 cell growth in a cell viability assay.
# [31] = test system: D-502MG
# Description: SANGER: Inhibition of human D-502MG cell growth in a cell viability assay.
# [32] = test system: COLO-684
# Description: SANGER: Inhibition of human COLO-684 cell growth in a cell viability assay.
# [33] = test system: CTV-1;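 also: growth inhibition of the cell line, read out with a cell viability assay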
# Description: SANGER: Inhibition of human CTV-1 cell growth in a cell viability assay.
# [34] = test system: SBC-1;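 also: cell viability assay measuring growth inhibition of the SBC-1 cell line, IC50 being the concentration that halves growth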
# Description: SANGER: Inhibition of human SBC-1 cell growth in a cell viability assay.
# [35] = test system: NCI-H209;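 also: growth inhibition of human NCI-H209 cells, measured by a cell viability assay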
# Description: SANGER: Inhibition of human NCI-H209 cell growth in a cell viability assay.
# [36] = test system: NTERA-2-cl-D1;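 also: inhibition of cell growth, measured with a cell viability assay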
# Description: SANGER: Inhibition of human NTERA-S-cl-D1 cell growth in a cell viability assay.
# [37] = test system: LC-2-ad;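 also: growth inhibition of human LC-2-ad cells, read out with a cell viability assay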
# Description: SANGER: Inhibition of human LC-2-ad cell growth in a cell viability assay.
# [38] = test system: ES5;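 also: growth inhibition of human ES5 cells, read out by a cell viability assay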
# Description: SANGER: Inhibition of human ES5 cell growth in a cell viability assay.
# [39] = test system: SK-N-DZ;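 also: growth inhibition of the cancer cell line, read out through a viability assay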
# Description: SANGER: Inhibition of human SK-N-DZ cell growth in a cell viability assay.
# [40] = test system: BE-13;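 also: growth inhibition of human BE-13 cells, measured with a cell viability assay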
# Description: SANGER: Inhibition of human BE-13 cell growth in a cell viability assay.
# [41] = test system: SW872;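 also: growth inhibition of SW872 cells, read out by a viability assay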
# Description: SANGER: Inhibition of human SW872 cell growth in a cell viability assay.
# [42] = test system: TE-8;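 also: growth inhibition of TE-8 cells, measured with a cell viability readout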
# Description: SANGER: Inhibition of human TE-8 cell growth in a cell viability assay.
# [43] = test system: LAMA-84;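 also: growth inhibition of LAMA-84 cells, read out with a cell viability assay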
# Description: SANGER: Inhibition of human LAMA-84 cell growth in a cell viability assay.
# [44] = test system: KE-37;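 also: growth inhibition of KE-37 cells, read out with a cell viability assay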
# Description: SANGER: Inhibition of human KE-37 cell growth in a cell viability assay.
# [45] = test system: CTB-1
# Description: SANGER: Inhibition of human CTB-1 cell growth in a cell viability assay.
# [46] = test system: EW-18;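 also: growth inhibition of EW-18 cells, read out by a cell viability assay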
# Description: SANGER: Inhibition of human EW-18 cell growth in a cell viability assay.
# [47] = test system: EW-24;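 also: human EW-24 cancer cell line, growth inhibition read out via a cell viability assay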
# Description: SANGER: Inhibition of human EW-24 cell growth in a cell viability assay.
# [48] = test system: HCC1187;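 also: growth inhibition of HCC1187 cells, read out with a cell viability assay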
# Description: SANGER: Inhibition of human HCC1187 cell growth in a cell viability assay.
# [49] = test system: RKO;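 also: growth inhibition of human RKO cells, read out with a cell viability assay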
# Description: SANGER: Inhibition of human RKO cell growth in a cell viability assay.
# [50] = test system: IST-SL1;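 also: growth inhibition of human IST-SL1 cells, read out with a cell viability assay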
# Description: SANGER: Inhibition of human IST-SL1 cell growth in a cell viability assay.
# [51] = test system: HT-144
# Description: SANGER: Inhibition of human HT-144 cell growth in a cell viability assay.
# [52] = test system: KP-N-YS;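 also: cell viability assay measuring inhibition of cell line growth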
# Description: SANGER: Inhibition of human KP-N-YS cell growth in a cell viability assay.
# [53] = test system: NCI-H1155;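 also: cell growth inhibition measured by a viability assay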
# Description: SANGER: Inhibition of human NCI-H1155 cell growth in a cell viability assay.
# [54] = test system: A704;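 also: growth inhibition of human A704 cells, read out with a cell viability assay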
# Description: SANGER: Inhibition of human A704 cell growth in a cell viability assay.
# [55] = test system: MFM-223
# Description: SANGER: Inhibition of human MFM-223 cell growth in a cell viability assay.
# [56] = test system: EOL1;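 also: growth inhibition of EoL-1 cells, read out by a cell viability assay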
# Description: SANGER: Inhibition of human EoL-1-cell cell growth in a cell viability assay.
# [57] = test system: CGTH-W-1;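 also: growth inhibition of human CGTH-W-1 cells measured by cell viability assay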
# Description: SANGER: Inhibition of human CGTH-W-1 cell growth in a cell viability assay.
# [58] = test system: BB49-HNC;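 also: cell viability assay read-out, reported as inhibition of BB49-HNC cell growth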
# Description: SANGER: Inhibition of human BB49-HNC cell growth in a cell viability assay.
# [59] = test system: NMC-G1;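 also: growth inhibition of the NMC-G1 cell line, measured with a cell viability read-out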
# Description: SANGER: Inhibition of human NMC-G1 cell growth in a cell viability assay.
# [60] = test system: ES7;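 also: growth inhibition of cultured human ES7 cells, read out as cell viability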
# Description: SANGER: Inhibition of human ES7 cell growth in a cell viability assay.
# [61] = test system: CW-2
# Description: SANGER: Inhibition of human CW-2 cell growth in a cell viability assay.
# [62] = test system: KARPAS-45
# Description: SANGER: Inhibition of human KARPAS-45 cell growth in a cell viability assay.
# [63] = test system: MZ7-mel
# Description: SANGER: Inhibition of human MZ7-mel cell growth in a cell viability assay.
# [64] = test system: SW 962
# Description: SANGER: Inhibition of human SW962 cell growth in a cell viability assay.
# [65] = test system: OMC-1
# Description: SANGER: Inhibition of human OMC-1 cell growth in a cell viability assay.
# [66] = test system: CP66-MEL
# Description: SANGER: Inhibition of human CP66-MEL cell growth in a cell viability assay.
structure (smiles),measurement,setting,value
COc1cc(Nc2c(C#N)cnc3cc(OCCCN4CCN(C)CC4)c(OC)cc23)c(Cl)cc1Cl [BOSUTINIB],IC50,[1],> 2 µM
same,IC50,[2],> 2 µM
same,IC50,[3],> 2 µM
same,IC50,[4],> 2 µM
same,IC50,[5],> 2 µM
same,IC50,[6],> 2 µM
same,IC50,[7],> 2 µM
same,IC50,[8],> 2 µM
same,IC50,[9],> 2 µM
same,IC50,[10],> 2 µM
same,IC50,[11],> 2 µM
same,IC50,[12],> 2 µM
same,IC50,[13],> 2 µM
same,IC50,[14],> 2 µM
same,IC50,[15],0.512 µM
same,IC50,[16],> 2 µM
same,IC50,[17],1.64 µM
same,IC50,[18],> 2 µM
same,IC50,[19],> 2 µM
same,IC50,[20],> 2 µM
same,IC50,[21],> 2 µM
same,IC50,[22],> 2 µM
same,IC50,[23],0.486 µM
same,IC50,[24],> 2 µM
same,IC50,[25],1.44 µM
same,IC50,[26],> 2 µM
same,IC50,[27],> 2 µM
same,IC50,[28],1.44 µM
same,IC50,[29],> 2 µM
same,IC50,[30],> 2 µM
same,IC50,[31],> 2 µM
same,IC50,[32],> 2 µM
same,IC50,[33],0.164 µM
same,IC50,[34],> 2 µM
same,IC50,[35],0.408 µM
same,IC50,[36],> 2 µM
same,IC50,[37],> 2 µM
same,IC50,[38],1.87 µM
same,IC50,[39],> 2 µM
same,IC50,[40],0.486 µM
same,IC50,[41],> 2 µM
same,IC50,[42],> 2 µM
same,IC50,[43],0.287 µM
same,IC50,[44],0.495 µM
same,IC50,[45],0.548 µM
same,IC50,[46],> 2 µM
same,IC50,[47],> 2 µM
same,IC50,[48],> 2 µM
same,IC50,[49],> 2 µM
same,IC50,[50],> 2 µM
same,IC50,[51],> 2 µM
same,IC50,[52],> 2 µM
same,IC50,[53],> 2 µM
same,IC50,[54],> 2 µM
same,IC50,[55],> 2 µM
same,IC50,[56],0.416 µM
same,IC50,[57],> 2 µM
same,IC50,[58],> 2 µM
same,IC50,[59],> 2 µM
same,IC50,[60],> 2 µM
same,IC50,[61],> 2 µM
same,IC50,[62],0.925 µM
same,IC50,[63],> 2 µM
same,IC50,[64],> 2 µM
same,IC50,[65],> 2 µM
same,IC50,[66],> 2 µM
CC(C)=CC[C@@H](O)C1=CC(=O)c2c(O)ccc(O)c2C1=O [SHIKONIN],IC50,[1],0.108 µM
same,IC50,[2],2.34 µM
same,IC50,[3],0.844 µM
same,IC50,[4],0.472 µM
same,IC50,[5],0.036 µM
same,IC50,[6],6.39 µM
same,IC50,[7],0.84 µM
same,IC50,[8],0.82 µM
same,IC50,[9],> 16 µM
same,IC50,[10],15.7 µM
same,IC50,[11],0.385 µM
same,IC50,[12],0.835 µM
same,IC50,[13],> 16 µM
same,IC50,[14],0.0193 µM
same,IC50,[15],0.451 µM
same,IC50,[16],0.777 µM
same,IC50,[17],0.47 µM
same,IC50,[18],0.72 µM
same,IC50,[19],> 16 µM
same,IC50,[20],1.79 µM
same,IC50,[21],1.16 µM
same,IC50,[22],3.87 µM
same,IC50,[23],0.417 µM
same,IC50,[24],0.726 µM
same,IC50,[25],0.154 µM
same,IC50,[26],4.59 µM
same,IC50,[27],1.48 µM
same,IC50,[28],0.299 µM
same,IC50,[29],> 16 µM
same,IC50,[30],> 16 µM
same,IC50,[31],4.37 µM
same,IC50,[32],0.401 µM
same,IC50,[33],> 16 µM
same,IC50,[34],12.1 µM
same,IC50,[35],12.3 µM
same,IC50,[36],0.144 µM
same,IC50,[37],0.953 µM
same,IC50,[38],2.63 µM
same,IC50,[39],1.8 µM
same,IC50,[40],1.2 µM
same,IC50,[41],0.367 µM
same,IC50,[42],1.28 µM
same,IC50,[43],1.21 µM
same,IC50,[44],0.244 µM
same,IC50,[45],0.859 µM
same,IC50,[46],0.529 µM
same,IC50,[47],14.6 µM
same,IC50,[48],1.02 µM
same,IC50,[49],0.27 µM
same,IC50,[50],> 16 µM
same,IC50,[51],0.561 µM
same,IC50,[52],0.352 µM
same,IC50,[53],> 16 µM
same,IC50,[54],2.7 µM
same,IC50,[55],0.899 µM
same,IC50,[56],0.509 µM
same,IC50,[57],0.5 µM
same,IC50,[58],> 16 µM
same,IC50,[59],1.3 µM
same,IC50,[60],0.548 µM
same,IC50,[61],> 16 µM
same,IC50,[62],9.99 µM
same,IC50,[63],0.114 µM
same,IC50,[64],0.568 µM
same,IC50,[65],1.75 µM
same,IC50,[66],2.4 µM
CCNc1cc(N[C@H]2CC[C@@H](O)CC2)nc(Nc2ccc3c(ccn3Cc3ccccc3)c2)n1,IC50,[1],> 5.12 µM
same,IC50,[2],5.05 µM
same,IC50,[3],> 5.12 µM
same,IC50,[4],> 5.12 µM
same,IC50,[5],> 5.12 µM
same,IC50,[6],> 5.12 µM
same,IC50,[7],> 5.12 µM
same,IC50,[8],> 5.12 µM
same,IC50,[9],> 5.12 µM
same,IC50,[10],> 5.12 µM
same,IC50,[11],> 5.12 µM
same,IC50,[12],> 5.12 µM
same,IC50,[13],3.26 µM
same,IC50,[14],> 5.12 µM
same,IC50,[15],> 5.12 µM
same,IC50,[16],> 5.12 µM
same,IC50,[17],> 5.12 µM
same,IC50,[18],> 5.12 µM
same,IC50,[19],> 5.12 µM
same,IC50,[20],> 5.12 µM
same,IC50,[21],> 5.12 µM
same,IC50,[22],> 5.12 µM
same,IC50,[23],3.74 µM
same,IC50,[24],> 5.12 µM
same,IC50,[25],> 5.12 µM
same,IC50,[26],> 5.12 µM
same,IC50,[27],> 5.12 µM
same,IC50,[28],> 5.12 µM
same,IC50,[29],> 5.12 µM
same,IC50,[30],> 5.12 µM
same,IC50,[31],> 5.12 µM
same,IC50,[32],> 5.12 µM
same,IC50,[33],> 5.12 µM
same,IC50,[34],> 5.12 µM
same,IC50,[35],> 5.12 µM
same,IC50,[36],> 5.12 µM
same,IC50,[37],0.702 µM
same,IC50,[38],> 5.12 µM
same,IC50,[39],> 5.12 µM
same,IC50,[40],> 5.12 µM
same,IC50,[41],> 5.12 µM
same,IC50,[42],> 5.12 µM
same,IC50,[43],> 5.12 µM
same,IC50,[44],> 5.12 µM
same,IC50,[45],> 5.12 µM
same,IC50,[46],> 5.12 µM
same,IC50,[47],> 5.12 µM
same,IC50,[48],> 5.12 µM
same,IC50,[49],4.72 µM
same,IC50,[50],> 5.12 µM
same,IC50,[51],> 5.12 µM
same,IC50,[52],> 5.12 µM
same,IC50,[53],> 5.12 µM
same,IC50,[54],> 5.12 µM
same,IC50,[55],> 5.12 µM
same,IC50,[56],> 5.12 µM
same,IC50,[57],> 5.12 µM
same,IC50,[58],> 5.12 µM
same,IC50,[59],> 5.12 µM
same,IC50,[60],> 5.12 µM
same,IC50,[61],> 5.12 µM
same,IC50,[62],> 5.12 µM
same,IC50,[63],> 5.12 µM
same,IC50,[64],> 5.12 µM
same,IC50,[65],> 5.12 µM
same,IC50,[66],> 5.12 µM
C/C(O)=C(\C#N)C(=O)Nc1cc(Br)ccc1Br,IC50,[1],> 16 µM
same,IC50,[2],> 16 µM
same,IC50,[3],> 16 µM
same,IC50,[4],> 16 µM
same,IC50,[5],> 16 µM
same,IC50,[6],> 16 µM
same,IC50,[7],> 16 µM
same,IC50,[8],> 16 µM
same,IC50,[9],> 16 µM
same,IC50,[10],> 16 µM
same,IC50,[11],> 16 µM
same,IC50,[12],> 16 µM
same,IC50,[13],> 16 µM
same,IC50,[14],> 16 µM
same,IC50,[15],> 16 µM
same,IC50,[16],> 16 µM
same,IC50,[17],> 16 µM
same,IC50,[18],> 16 µM
same,IC50,[19],> 16 µM
same,IC50,[20],> 16 µM
same,IC50,[21],> 16 µM
same,IC50,[22],> 16 µM
same,IC50,[23],> 16 µM
same,IC50,[24],> 16 µM
same,IC50,[25],> 16 µM
same,IC50,[26],> 16 µM
same,IC50,[27],> 16 µM
same,IC50,[28],> 16 µM
same,IC50,[29],> 16 µM
same,IC50,[30],> 16 µM
same,IC50,[31],> 16 µM
same,IC50,[32],> 16 µM
same,IC50,[33],> 16 µM
same,IC50,[34],> 16 µM
same,IC50,[35],> 16 µM
same,IC50,[36],> 16 µM
same,IC50,[37],> 16 µM
same,IC50,[38],> 16 µM
same,IC50,[39],> 16 µM
same,IC50,[40],> 16 µM
same,IC50,[41],> 16 µM
same,IC50,[42],> 16 µM
same,IC50,[43],> 16 µM
same,IC50,[44],> 16 µM
same,IC50,[45],> 16 µM
same,IC50,[46],> 16 µM
same,IC50,[47],> 16 µM
same,IC50,[48],> 16 µM
same,IC50,[49],> 16 µM
same,IC50,[50],> 16 µM
same,IC50,[51],> 16 µM
same,IC50,[52],> 16 µM
same,IC50,[53],> 16 µM
same,IC50,[54],> 16 µM
same,IC50,[55],> 16 µM
same,IC50,[56],> 16 µM
same,IC50,[57],> 16 µM
same,IC50,[58],> 16 µM
same,IC50,[59],> 16 µM
same,IC50,[60],> 16 µM
same,IC50,[61],> 16 µM
same,IC50,[62],> 16 µM
same,IC50,[63],> 16 µM
same,IC50,[64],> 16 µM
same,IC50,[65],> 16 µM
same,IC50,[66],> 16 µM
